The source of these data is patent US8008354B2, “Death receptor sensitizing compounds and methods of use therefor” (Burnham Institute for Medical Research, priority 2006, dated 2011).

Assay [1] deals with FLIP. In words: FLIP protein levels by SDS-PAGE/immunoblotting. Type of assay: cell-based, human. As to conditions: Example 2; PPC-1 cells, increasing concentrations, 16 hours. The method, then:
FIG. 7. Effect of FAS-sensitizing compounds on levels of FLIP protein and DISC activation. (A) PPC-1 cells (2×10^5) were seeded into 35 mm plates and treated the next day with various FAS-sensitizing compounds (30 μM), with (+) or without (−) CH-11 antibody (100 ng/mL). As a positive control, cells were treated with CDDO (5 μM). Cell lysates were prepared 24 hours later, normalized for total protein content, and analyzed by SDS-PAGE/immunoblotting using antibodies specific for FLIP or a-tubulin. (B) PPC-1, OVCAR-3, T47D, MDA-MB-468 and DU 145 cells (2×10^5) were seeded into 35 mm plates and treated the next day with 5809354 (40 μM). Cell lysates were prepared 24 hours after treatment, normalized for total protein and analyzed by SDS-PAGE/immunoblotting using antibodies specific for FLIP or β-actin. (C) PPC-1, OVCAR-3, T47D, and DU 145 cells (2×10^5) were seeded into 35 mm plates and treated the next day with 5809354 (40 μM) (black bars) or buffer control (white bars). mRNA was extracted 24 hours after treatment. Levels of the long isoform of FLIP and GAPDH were detected by quantitative RT-PCR. Levels of FLIP were normalized for GAPDH expression and expressed as a mean fold change+SD over buffer treated cells. (D) PPC-1 cells (2×10^5) were seeded into 35 mm plates and treated the next day with various FAS-sensitizing compounds (30 μM) with (+) or without (−) CH-11 (100 ng/mL). Cell lysates were prepared 24 hours after treatment, normalized for total protein, and analyzed by SDS-PAGE/immunoblotting using antibodies specific for caspase-8 and β-actin.
(§1) FIG. 13. Small molecule down-regulation of FLIP sensitizes prostate cancer cells to anoikis. (A) PPC-1 cells were seeded overnight in adherent conditions and then treated with increasing concentrations of 5809354 for 16 hours. After incubation, cells were harvested. Total cellular RNA was extracted and mRNA levels of the long isoform of FLIP (FLIPL), the short isoform of FLIP (FLIPS), or rRNA levels of 18S were detected by real-time RT-PCR. Data were normalized using the ΔΔCT method and expressed as the mean±SEM percent of […] expression relative to untreated controls. (B) PPC-1 cells were cultured and treated as in panel A. Total cellular protein was isolated and analyzed by SDS-PAGE immunoblotting using anti-FLIP and anti-Actin antibodies. (C) PPC-1 cells were seeded overnight in adherent conditions and then exposed to increasing concentrations of 5809354 in the presence or absence of Fas-activating antibody (CH-11, 100 ng/mL). Thirty hours after incubation, cell viability was determined using the MTS assay. Data represents the mean±SEM of percent of viable cells. (D) PPC-1 cells were seeded overnight in adherent or suspension conditions and then treated with increasing concentrations of 5809354 for 30 hours. After incubation, apoptosis was measured by flow cytometry to detect cell surface annexin V expression and PI. Data represents the mean±SEM of percent of viable cells. (E) Cells were harvested, fixed, stained with DAPI, and nuclear morphology analyzed by fluorescence microscopy. Arrowheads refer to fragmented nuclei indicative of apoptosis. […] Thirty hours after incubation, cells were harvested and equal volumes plated in a colony formation assay. One week later, cells were stained with methylene blue and the number of colonies counted. Data represents the mean ±SEM percent of colonies relative to untreated controls.
Immunoblot analysis. Protein extracts were obtained by washing cells with phosphate-buffered saline (PBS) [pH 7.4] and suspending the cells in lysis buffer [10 mM Tris (pH 7.4), 150 mM NaCl, 0.1% Triton X-100, 0.5% sodium deoxycholate, and 5 mM EDTA] containing protease inhibitors (Complete tablets; Roche, Indianapolis, Ind.). Immunoblot assays were performed as described in Carter et al. (2005). […]

Assay [2] deals with PPC-1 cells. In words: MTS viability of adherent PPC-1 cells with or without CH-11, thirty hours. Type of assay: cell-based, human. As to conditions: CH-11 100 ng/mL. The method, then:
FIG. 13. Small molecule down-regulation of FLIP sensitizes prostate cancer cells to anoikis. (A) PPC-1 cells were seeded overnight in adherent conditions and then treated with increasing concentrations of 5809354 for 16 hours. After incubation, cells were harvested. Total cellular RNA was extracted and mRNA levels of the long isoform of FLIP (FLIPL), the short isoform of FLIP (FLIPS), or rRNA levels of 18S were detected by real-time RT-PCR. Data were normalized using the ΔΔCT method and expressed as the mean±SEM percent of […] expression relative to untreated controls. (B) PPC-1 cells were cultured and treated as in panel A. Total cellular protein was isolated and analyzed by SDS-PAGE immunoblotting using anti-FLIP and anti-Actin antibodies. […] Thirty hours after incubation, cell viability was determined using the MTS assay. […] After incubation, apoptosis was measured by flow cytometry to detect cell surface annexin V expression and PI. […] (E) Cells were harvested, fixed, stained with DAPI, and nuclear morphology analyzed by fluorescence microscopy. […] One week later, cells were stained with methylene blue and the number of colonies counted. […]
Cell viability apoptosis, colony formation, and caspase activation assays. Cell viability was assessed using the MTS reduction assay (Promega, Madison, Wis., USA) according to the manufacturer's protocols and as described in Schimmer et al. (2006). […]

Assay [3] concerns PPC-1 cells. In words: Anoikis of PPC-1 cells in suspension versus adherent conditions (annexin V/PI, DAPI, colony formation). Type of assay: cell-based, human. As to the method:
FIG. 12. Depletion of endogenous FLIP levels by siRNA sensitizes malignant cells to anoikis. (A) PPC-1 cells were seeded in adherent conditions overnight and then transfected with 25 nM anti-FLIP siRNA (siFLIP) or control luciferase siRNA (siCtrl). Thirty hours after transfection, cells were harvested, total protein isolated and analyzed by SDS-PAGE immunoblotting using anti-FLIP and anti-actin antibodies. (B) PPC-1 cells were transfected with increasing concentrations of siFLIP or siCtrl. After transfection, cells were treated with CH-11 Fas activating antibody (100 ng/ml). Thirty hours after incubation, cells were harvested and apoptosis measured by flow cytometry to detect cell surface annexin V expression and PI uptake. Data represents the mean±SEM percent of viable cells. (C) PPC-1 cells were transfected with increasing concentrations of siFLIP or siCtrl. After transfection, cells were subcultured under suspension conditions for 30 hours and then harvested. Apoptosis was measured by flow cytometry to detect cell surface annexin V expression and PI uptake. Data represents the mean±SEM of percent of viable cells. (D) Equal volumes of PPC-1 cells from panel C were replated under adherent conditions to permit clonogenic growth. One week after replating, cells were stained with methylene blue and the number of colonies counted. Data represents the mean±SEM percent of colonies compared to untreated controls.
as §1
FIG. 15. 5809354 sensitizes cells to anoikis through a caspase 8 dependent mechanism. (A) PPC-1 cells (5×10^4) were cultured under suspension conditions overnight and then treated with 5809354 in the presence or absence of the pan-caspase inhibitor z-VAD-fink (100 μM). Thirty hours after incubation, anoikis was determined by flow cytometry to detect cell surface annexin V expression and PI uptake. Data represents the mean±SEM percent of viable cells or colonies compared to untreated controls. (B) PPC-1 cells (5×10^4) were cultured in suspension conditions overnight and then treated with 5809354 (60 μM). […]

In assay [4] the test system is FLIP. As to conditions: previously shown (Kim et al., 2002); cited from earlier work.
Assay [5] relates to PPC-1 cells. In words: MTT viability of PPC-1 cells with extrinsic (CH-11, TRAIL) or intrinsic (VP-16, staurosporine) pathway stimuli. Type of assay: cell-based, human. As to conditions: CH-11, TRAIL versus VP-16, STS, MTT 24 hours. As to the method:
FIG. 4. Small molecules selectively sensitize to extrinsic pathway stimuli. PPC-1 cells (1×10^4) were seeded overnight in 96 well plates. The next day, cells were treated with increasing concentrations of 6094911, 5809354, 5703229, or 5569100 in combination with increasing concentrations of CH-11 or TRAIL to activate the extrinsic pathway or with VP-16 or staurosporine to activate the intrinsic pathway. Cell viability was measured 24 hours later by MTT assay. Cell viability is expressed as a mean percentage of untreated cells+SD(n=3).
Statistics. Cytotoxicity induced by compounds used in combination with conventional agents (e.g., CH-11, TRAIL, VP-16 and staurosporine) was evaluated for evidence of synergy toxicity by comparing the slopes of the dose-response curves. […]
The 9 compounds identified using anti-FAS antibody screening theoretically could non-specifically sensitize tumor cells to apoptotic stimuli or they could be selective for the extrinsic pathway. […] Accordingly, PPC-1 cells were treated with various concentrations of compounds with or without CH-11, TRAIL, VP-16, or STS, and 24 hours later, cell viability was measured by MTT assays.

As for `CCOCCCNC(=O)CCCOc1ccc(Cl)cc1C` [compound 7271570, (4-(4-chloro-2-methylphenoxy))-N-(3-ethoxypropyl)-butanamide], the FLIP protein expression entry with FLIP [1] is given as “failed to decrease FLIP levels”. Besides, the “viability in the presence of Fas-activating antibody (CH-11)” value with PPC-1 cells [2] was “failed to sensitize”. In the assay with PPC-1 cells [3] (suspension conditions, 30 hours), the sensitization to anoikis entry is “failed to sensitize”. The “colony formation after suspension culture” value in the assay with PPC-1 cells [3] (thirty hours in suspension, colonies counted one week later) is “inactive”.

`CC1(C)CC[C@]2(C(=O)O)CC[C@]3(C)[C@H](C(=O)C=C4[C@@]5(C)C=C(C#N)C(=O)C(C)(C)[C@@H]5CC[C@]43C)[C@@H]2C1` [CDDO, 2-cyano-3,12-dioxooleana-1,9-dien-28-oic acid]: the FLIP protein levels entry in the assay on FLIP [4] was “reduce FLIP protein levels”.

Turning to `C[n+]1ccn2c3c(c4cc(C5CCCCC5)ccc42)CCCc31.[I-]` [compound 5362611, 8-Cyclohexyl-3-methyl-5,6-dihydro-4H-pyrazino[3,2,1-jk]carbazol-3-ium; iodide], the “sensitization to extrinsic versus intrinsic pathway stimuli” value in the assay with PPC-1 cells [5] was “sensitized to both the death receptor (extrinsic) and mitochondrial pathway (intrinsic) stimuli”.
